Data on ten compounds can be found in US6861524B2, “Acyl and sulfonyl derivatives of 6,9-disubstituted 2-(trans-1,4-diaminocyclohexyl)-purines and their use as antiproliferative agents” (Aventis Pharmaceuticals Inc., priority 2000, dated 2005).

For one data set, the target named is cdk1/cyclin B (Homo sapiens, UniProt P06493). As to the kind of experiment: Cyclin-dependent kinase assay, cdk1/cyclin B (Histone H1 substrate).
The target of another data set is cdk4/cyclin D1 (Homo sapiens, UniProt P11802). Description: Cyclin-dependent kinase assay, cdk4/cyclin D1 (GST-pRb substrate). The format is biochemical. The settings on record: inhibition of cyclin D1/CDK 4 enzyme activity.
cdk4/cyclin D1, sequence (P11802 whole entry): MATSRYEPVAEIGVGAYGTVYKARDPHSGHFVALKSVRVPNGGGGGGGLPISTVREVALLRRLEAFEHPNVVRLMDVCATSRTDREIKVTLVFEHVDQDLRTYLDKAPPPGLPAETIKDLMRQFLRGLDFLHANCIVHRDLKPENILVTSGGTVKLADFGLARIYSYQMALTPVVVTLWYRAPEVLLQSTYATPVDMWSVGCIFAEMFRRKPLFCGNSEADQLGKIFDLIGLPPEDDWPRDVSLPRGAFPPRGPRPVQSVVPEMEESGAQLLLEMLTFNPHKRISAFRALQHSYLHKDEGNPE
cdk4/cyclin D1, sequence (P24385 whole entry partner): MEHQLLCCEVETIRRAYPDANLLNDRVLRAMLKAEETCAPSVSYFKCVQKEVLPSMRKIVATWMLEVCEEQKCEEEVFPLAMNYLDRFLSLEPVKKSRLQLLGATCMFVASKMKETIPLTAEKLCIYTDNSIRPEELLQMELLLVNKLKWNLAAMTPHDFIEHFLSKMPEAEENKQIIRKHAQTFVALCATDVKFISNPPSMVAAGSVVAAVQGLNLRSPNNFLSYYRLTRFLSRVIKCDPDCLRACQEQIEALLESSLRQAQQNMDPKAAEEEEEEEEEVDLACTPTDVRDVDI
Data set [1] is described as follows: Plasma pharmacokinetics in mice after single intravenous cassette doses. The settings on record: for Mean Conc. in plasma: mice.
Experimental: Male mice are given single intravenous cassette doses of CDK inhibitor compounds.
A single intravenous cassette dose (18 or 15 mg/kg free base) is administered. For each compound, this is equivalent to a dose of approx. 3 mg/kg free base. […] The dose is administered at a volume of 10 ml/kg (total volume of approximately 0.25 ml/animal).
Male mice (Hsd:ICR (CD-1® SD®), Harlan), each weighing approximately 20-30 g at the start of the study. […] Water is available ad libitum throughout the study.
A single cassette dose of 5-6 compounds is administered by bolus injection into the tail vein over a 10-15-second period. […] Whole blood (approximately 0.6 ml/sample) is obtained by cardiac puncture and transferred to 3 ml glass tubes containing 45 U sodium heparin.
Sample Processing: Plasma: Whole blood is centrifuged at approximately 3,200 rpm for 10 min at approximately 5° C. and the plasma (approx. 0.3 ml/sample) is transferred to chilled plastic vials and stored at approx. −70° C. until bioanalysis.
Sample Analysis: Concentrations of each test article in plasma are quantitated by a non-validated method based on LC/MS using the following protocol.
Samples are removed from the freezer, allowed to thaw at room temperature, and vortexed to insure complete homogenization prior to sample manipulation. Samples are then prepared according to the following scheme: • 1. transfer 48 μL of plasma (blank mouse sample) into a 12×75 mm test tube. • 2. add 12 μL of working standard to the blank plasma for standard curve preparation. • 3. […] Inject 25 μL on LC/MS. Chromatographic Conditions:
Data Analysis: Concentrations of Compounds in plasma of individual animals are determined by bioanalytics. […] Statistical analyses are limited to simple expressions of variation (mean and standard deviation). The plasma AUC (area-under-curve) is determined by the linear trapezoidal rule. […] All PK parameters are determined by noncompartmental methods using WinNonlin version 3.0 (Pharsight Corp).
The following information is based on a graph of the semi-log of the plasma concentration in ng/ml versus collection time in hours. • “Cmax” represents the maximum plasma concentration. • “t1/2” represents the half-life of the compound. • “AUC0-∞” represents the calculated area under the curve. • “AUC % Extrap(obs.)” represents the extrapolated area under the curve. • “Cls” is the clearance rate.
Data set [2] in a line: Red blood cell binding (RBC to plasma ratio), human whole blood. The format is in vitro ADME. The settings on record: 30 minutes at 37° C., nominal 500 ng/ml. How it is done: (§1) Compounds, including one positive control, are assessed for red blood cell (RBC) uptake, using a modified procedure based on the protocol reported in Sun, J. X. S., et al. High-performance liquid chromatographic analysis, plasma protein binding and red blood cell partitioning of phenprobamate. Biopharmaceutics and Drug Disposition, 8 (1987) 341-351.
(§2) Briefly, RBC uptake is evaluated by comparison of the levels in spiked plasma (n=3) and plasma isolated from spiked whole blood (n=3). Compounds are incubated with human and mouse whole blood, respectively, for 30 minutes at 37° C. using a nominal concentration of 500 ng/ml. Following centrifugation, the plasma is removed and submitted for analysis. Each compound is also spiked into blank plasma at a nominal concentration of 500 ng/ml, and submitted for analysis. Levels in the two plasma samples (Cp′ and Cp in the equation below) and the blood hematocrit are used to determine the red blood cell to plasma ratio (Crbc/Cp). [formula] In equation 1, Cp′ is the level of drug in the spiked “blank” plasma, Cp is the level of drug in the plasma of spiked whole blood, and H is the hematocrit. The hematocrit values are determined as 0.4 for human whole blood and 0.41 for mouse whole blood. The samples are analyzed with ESI LC/MS, using positive ion detection with an internal standard.
(§3) The red blood cell to plasma ratio is determined for each compound using equation 1. Tables 6 and 7 summarize the respective mean Crbc/Cp values and standard deviations for mouse and human whole blood, respectively, in descending order based on the red blood cell to plasma ratio, where “*” denotes Positive Control, and “ND” denotes Not Determined. MDL 108552 is included as a positive control for red blood cell uptake.

A further data set deals with HL-60 human leukemia. As to the kind of experiment: HL-60 human leukemia xenograft in nude mice. The format is in vivo. Conditions: Table 5; 1 mg/kg ip q1d 5x/wk; control 8341 ± 5355. How it is done: Antitumor efficacy is assessed using two subcutaneous human tumor xenograft models. The studies are performed using conventional assay techniques. Briefly, HL-60 (leukemia, 5×10^5 cells) and PC-3 (prostate, 5×10^6 cells) tumor cells are injected subcutaneously into nude mice (Cr1-CD1-Br-nu, Charles River Laboratory, Wilmington, Mass.). Dosing with compounds began when tumors reached 50 to 100 mm^3. The dose route/schedule for the test compounds is ip/q1d (5×/wk). The test doses are set based on the maximum tolerated dose (MTD). […] The test doses for the efficacy studies are set at ⅓rd the MTD (low dose) and the MTD (high dose). The results are shown in Tables 4 and 5 (HL-60, leukemia) (PC-3, prostate cancer). The length of the treatment phase is dependent on the tumor growth rate for the two models. This treatment phase is typically about 3 weeks for the HL-60 model and about 5 weeks for the PC-3 model. […] Dosing with flavopiridol is for the same time frame as for the experimental compounds in both xenograft models. Tumor volume (twice weekly) and body weights (once weekly) are monitored throughout the course of the treatment phase of the experiment. Tumor sizes are measured by external caliper measurements of protruding tumor. Volumes are calculated using the following formula: volume=½ (a×b2), where b is the smaller of two perpendicular diameters.
(In general: Xenograft models place foreign cells or tissue in a host animal.)

The subject of the next data set is cortical neurons. The settings on record: Park et al. 1997; cited from earlier work.
Data set [3] deals with PC12 cells, or rat sympathetic neurons. The settings on record: PC12 cells / sympathetic neurons; Park et al. 1997; cited from earlier work.
For the next data set, the system named is PC-3. Description: In vitro proliferation assay (MTT), PC-3. The format is cell-based, human. How it is done:
(§4) The proliferation of tumor cells can be measured using a tetrazolium salt-based assay known as the MTT (3-[4,5-Dimethylthiazol-2-yl]-2,5-diphenyltetrazolium bromide) assay. […] For the assay, the cell lines are plated onto 96 well plates at 1000 to 2500 cells/well (depending on the properties of the individual cell lines), left to attach and recover overnight. […] After 3 days, the cells are incubated with MTT dye (3-[4,5-Dimethylthiazol-2-yl]-2,5-diphenyltetrazolium bromide, Sigma #M5655, 10 mg/ml in Hank's Buffered Saline) to estimate the amount of live cells remaining vs. concentration for the test compounds. […] The MTT and culture medium is then removed from the cultures and 200 μl of DMSO is added to solubilize the dye from the cell layer. The absorbance at 570 nm is determined for each culture using a Spectramax plate reader (Molecular Devices).
(§5) IC50s were determined from the raw data from either the MTT or SRB assays.
(§6) All of the cell lines were obtained from American Type Tissue Collection, with the ATCC accession number in parentheticals. MCF-7 and MDA-MB-231 cells were grown in improved minimum essential medium (Biofluids) without phenol red, supplemented with 5% fetal bovine serum, 0.01 mg/ml gentamicin and 3 mM L-glutamine.

Data set [4] can be described thus: Red blood cell binding (RBC to plasma ratio), mouse whole blood. The format is in vitro ADME. The settings on record: 30 minutes at 37° C., nominal 500 ng/ml, hematocrit 0.41. On the procedure: as §1, §2, §3
In the next data set the test system is MDA-MB-435. As to the kind of experiment: In vitro proliferation assay (MTT), MDA-MB-435. It counts as cell-based, human. The settings on record: mean (SD, n) where given, read-out: MB-435 Breast (IC50 μM). On the procedure:
as §4, §5, §6

The target in another data set is cdk2/cyclin E (Homo sapiens, UniProt P24941). As to the kind of experiment: Cyclin-dependent kinase assay, cdk2/cyclin E (GST-pRb substrate). Conditions: read-out: CDK2 IC50; inhibition of cyclin E/CDK 2 enzyme activity.

Where a name gives a salt, the structure may show the parent alone. Read-outs that look alike come from different tables or passages of the source.

cdk1/cyclin B, sequence (P06493 whole entry): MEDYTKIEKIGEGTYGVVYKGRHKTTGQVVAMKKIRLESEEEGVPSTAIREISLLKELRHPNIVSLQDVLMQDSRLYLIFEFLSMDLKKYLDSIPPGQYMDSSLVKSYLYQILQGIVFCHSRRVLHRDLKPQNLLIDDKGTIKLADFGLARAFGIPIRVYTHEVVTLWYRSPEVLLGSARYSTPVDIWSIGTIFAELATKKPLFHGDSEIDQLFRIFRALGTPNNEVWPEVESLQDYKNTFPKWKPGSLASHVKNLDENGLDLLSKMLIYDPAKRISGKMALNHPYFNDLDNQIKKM
cdk1/cyclin B, sequence (P14635 whole entry partner): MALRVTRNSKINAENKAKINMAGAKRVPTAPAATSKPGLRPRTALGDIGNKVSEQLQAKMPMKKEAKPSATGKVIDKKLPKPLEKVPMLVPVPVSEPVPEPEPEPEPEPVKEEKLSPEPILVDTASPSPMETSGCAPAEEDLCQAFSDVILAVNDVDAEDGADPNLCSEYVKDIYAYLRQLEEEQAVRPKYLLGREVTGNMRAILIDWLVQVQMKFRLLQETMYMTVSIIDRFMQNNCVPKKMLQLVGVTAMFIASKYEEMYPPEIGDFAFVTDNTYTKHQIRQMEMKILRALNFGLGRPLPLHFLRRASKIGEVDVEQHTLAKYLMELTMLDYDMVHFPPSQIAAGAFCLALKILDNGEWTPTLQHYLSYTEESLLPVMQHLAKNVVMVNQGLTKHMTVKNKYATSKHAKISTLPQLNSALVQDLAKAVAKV
Experimental for cdk1/cyclin B: (§7) The IC50 values for cdk1/cyclin B, cdk2/cyclin E, and cdk4/cyclin D1 inhibition are determined using the following methods:
The cdk1 sequence (accession number Y00272) is amplified by PCR and cloned into the BamHI and SalI sites of pFASTBAC1 (Life Technologies).
The cyclin B1 sequence (accession number M25753) is amplified by PCR and cloned into the BamHI and SalI sites of pFASTBAC1 (Life Technologies).
(§8) The cDNA for each of the cyclin-dependent kinases (CDK) and the corresponding cyclins are cloned into the baculovirus expression vector, pFASTBAC1 (Life Technologies). The sequences of each of the constructs are confirmed by automated fluorescent DNA sequencing according to the manufacture's protocol (Perkin Elmer/Applied Biosystems Inc).
(§9) The insect cell (Sf9) expression is optimized for each of the CDK/cyclin pairs according to the manufacturer's protocols (Life Technologies).
(§10) The viruses are added to the cells and the culture is incubated at 27° C. for the desired time. The cells are harvested by centrifugation at 3000 rpm for 10 minutes. The cells are snap frozen on dry ice and stored at −80° C.
(§11) Cell extracts are made following a standard procedure. The cell pellet is resuspended in lysis buffer (50 mM HEPES, pH 8.0, 10 mM MgCl2, 1 mM DTT, 2.5 mM EGTA, 1 mM EDTA, 10 mM β-glycerophosphate, 1 mM sodium vanadate, 1 mM sodium fluoride, 1×Protease inhibitor cocktail). The cells are lysed using the microfluidizer (Microfluidics) for 20 minutes. Cell debris is removed by centrifugation at 100,000×g. The cell extracts are aliquoted in 1 ml aliquots, frozen on dry ice, and stored at −80° C.
The kinase reactions are performed following a standard procedure. The enzyme and inhibitor are diluted in kinase buffer (50 mM HEPES, pH 8.0, 10 mM MgCl2, 2.5 mM EGTA, 10 mM β-glycerophosphate, 1 mM sodium vanadate, 1 mM sodium fluoride, and 1 mM DTT) and pre-incubated for 30 minutes. […] The cdk1 enzyme activity is assayed using Histone H1 (Sigma) in the presence of 10 μM ATP for 30 min at room temperature. The reactions are terminated by the addition of 50 μL of 10 mM cold ATP to stop the reactions. The reactions are transferred to a pre-soaked 96-well multi-screen plate containing 30 μL of 100% TCA per well. After incubation for one hour at room temperature, the plates are washed twice with 200 μl of 20% TCA, followed by 200 μl of 10% TCA and finally with 200 μl of 5% TCA. After drying the plates at room temperature, the filter plates are placed in adapter plates (Packard) and 40 μl of Microscint-O® (Packard) is added to each well. Top Seal A film is used to cover the plates before counting in a Top Count Scintillation Counter.
The % remained activity of the indicated Cdk/cyclin kinase complex in the presence of inhibitor is calculated by the ratio of cpm in the presence of inhibitor to cpm in the absence of inhibitor (% Activity=vi/vo×100%).
Experimental for cdk2/cyclin E: as §7
The cdk2 sequence (accession number X62071) is amplified by PCR and cloned into the SpeI and XhoI sites of pFASTBAC1 (Life Technologies). […] This primer would anneal in the 3′ untranslated sequence.
The cyclin E sequence (accession number M73812) is amplified by PCR and cloned into the XbaI and XhoI sites of pFASTBAC1 (Life Technologies).
as §8, §9, §10, §11
The kinase reactions are performed following a standard procedure. […]
The transformed bacteria are grown overnight to saturation, then diluted in YT broth and incubated at 37° C. for 2 h. […] The beads are washed with kinase buffer and then quantitated of Coomassie blue-stained proteins separated by SDS-PAGE using a protein standard of known concentration.

One may read the IC50 as the concentration at which inhibition is half-maximal. With `N[C@H]1CC[C@H](Nc2nc(NC3CCN(C(=O)/C=C/c4cccc(C(F)(F)F)c4)CC3)c3ncn(C4CCCC4)c3n2)CC1` [Compound 44, trans-(E)-1-{4-[2-(4-Amino-cyclohexylamino)-9-cyclopentyl-9H-purin-6-ylamino]-piperidin-1-yl}-3-(3-trifluoromethyl-phenyl)-propenone dihydrochloride], the 50% inhibitory concentration (IC50) on cdk1/cyclin B is 129 nM; against cdk4/cyclin D1, 1490 nM.
For `Cc1ccc(OC(=O)N2CCC(Nc3nc(N[C@H]4CC[C@H](N)CC4)nc4c3ncn4C3CCCC3)CC2)cc1.Cl.Cl` [Compound 82, trans-4-[2-(4-Amino-cyclohexylamino)-9-cyclopentyl-9H-purin-6-ylamino]-piperidine-1-carboxylic acid p-tolyl ester dihydrochloride], the “Mean Conc. in plasma” value in [1] (Cassette #4, single 15 mg/kg iv cassette dose (3 mg/kg/compound), 0.083 h) came out at 1458.0 ± 77.4 ng/mL; in data set [1] (Cassette #4, single 15 mg/kg iv cassette dose (3 mg/kg/compound), 0.25 h) it was 875.3 ± 96.7 ng/mL; in data set [1] (Cassette #4, single 15 mg/kg iv cassette dose (3 mg/kg/compound), 0.5 h) it was 369.6 ± 40.0 ng/mL; in data set [1] (Cassette #4, single 15 mg/kg iv cassette dose (3 mg/kg/compound), 1 h) it was 133.7 ± 16.3 ng/mL; in data set [1] (Cassette #4, single 15 mg/kg iv cassette dose (3 mg/kg/compound), 3 h), 37.5 ± 10.7 ng/mL; in [1] (Cassette #4, single 15 mg/kg iv cassette dose (3 mg/kg/compound), 6 h) it was 14.5 ± 3.4 ng/mL. The “Mean Conc. in plasma” value in [1] (Cassette #4, single 15 mg/kg iv cassette dose (3 mg/kg/compound), 8 h) was 12.3 ± 2.2 ng/mL; in data set [1] (Cassette #4, single 15 mg/kg iv cassette dose (3 mg/kg/compound), 24 h) it was “BLQ”. The same compound displayed a Cls in [1] (mouse plasma, iv Cassette #4, 3 mg/kg/compound (15 mg/kg total dose)) of 53.0 mL/min/kg. The “Mean Red Blood Cell to Plasma Ratio” value in [2] is reported as 5.8. Moreover, in the data set with HL-60 human leukemia, the “HL60 Mean Vol. ± SD” value is recorded as 5164 ± 5516.
Take `NC1CCC(Nc2nc(NC3CCN(C(=O)[C@@H]4C[C@H]4c4ccccc4)CC3)c3ncn(C4CCCC4)c3n2)CC1` (mixture of isomers) [Compound 43, (±)-trans-1-{4-[2-(4-Amino-cyclohexylamino)-9-cyclopentyl-9H-purin-6-ylamino]-piperidin-1-yl}-1-(2-phenyl-cyclopropyl)-methanone dihydrochloride]: the values for the IC50 against cdk1/cyclin B and at cdk4/cyclin D1 were 51 nM and 293 nM, respectively.
Regarding `Cn1cnc2nc(NCCO)nc(NCc3ccccc3)c21` [iso-olomoucine], the “prevention of cell death of camptothecin-treated neuronal cells” value (in the data set on cortical neurons; in [3]) was “failed to prevent the cell death” throughout.
On to `CC(C)=CC(=O)N1CCC(Nc2nc(N[C@H]3CC[C@H](N)CC3)nc3c2ncn3C2CCCC2)CC1` [Compound 30, trans 1-{4-[2-(4-Amino-cyclohexylamino)-9-cyclopentyl-9#H!-purin-6-ylamino]-piperidin-1-yl}-3-methyl-but-2-en-1-one dihydrochloride], for which the IC50 on cdk1/cyclin B turned out to be 25 nM; against cdk4/cyclin D1 it was 683 nM.
Turning to `N[C@H]1CC[C@H](Nc2nc(NC3CCN(S(=O)(=O)c4cccs4)CC3)c3ncn(C4CCCC4)c3n2)CC1` [Compound 128, trans-N^2&-(4-Amino-cyclohexyl)-9-cyclopentyl-N^6-[1-(thiophene-2-sulfonyl)-piperidin-4-yl]-9H-purine-2,6-diamine dihydrochloride], the values for the IC50 against cdk1/cyclin B and on cdk4/cyclin D1 were 9 nM and 5 nM, respectively.
Take `CCCCc1ccc(C(=O)N2CCC(Nc3nc(N[C@H]4CC[C@H](N)CC4)nc4c3ncn4C3CCCC3)CC2)cc1` [Compound 21, trans-1-{4-[2-(4-Amino-cyclohexylamino)-9-cyclopentyl-9H-purin-6-ylamino]-piperidin-1-yl}-1-(4-butyl-phenyl)-methanone]: the half-inhibitory concentration (IC50) against cdk1/cyclin B is 89 nM; at cdk4/cyclin D1, 476 nM.
The corresponding values for `N[C@H]1CC[C@H](Nc2nc(NC3CCN(C(=O)/C=C/c4ccccc4)CC3)c3ncn(C4CCCC4)c3n2)CC1` [Compound 62, trans-(E)-1-{4-[2-(4-Amino-cyclohexylamino)-9-cyclopentyl-9H-purin-6-ylamino]-piperidin-1-yl}-3-phenyl-propenone dihydrochloride] are 25 nM and 167 nM.
As to `Cl.Cl.N[C@H]1CC[C@H](Nc2nc(NC3CCN(C(=O)Oc4ccc(F)cc4)CC3)c3ncn(C4CCCC4)c3n2)CC1` [Compound 87, trans-4-[2-(4-Amino-cyclohexylamino)-9-cyclopentyl-9H-purin-6-ylamino]-piperidine-1-carboxylic acid 4-fluoro-phenyl ester dihydrochloride], the IC50 with PC-3 (Homo sapiens, PC-3, read-out: PC-3 Prostate (IC50 μM)) is 0.16 µM. In addition, the “Mean Conc. in plasma” value was determined as 1171.4 ± 153.4 ng/mL in [1] (Cassette #3, single 15 mg/kg iv cassette dose (3 mg/kg/compound), 0.083 h); 371.9 ± 35.9 ng/mL in data set [1] (Cassette #3, single 15 mg/kg iv cassette dose (3 mg/kg/compound), 0.25 h); 141.4 ± 9.5 ng/mL in [1] (Cassette #3, single 15 mg/kg iv cassette dose (3 mg/kg/compound), 0.5 h); 65.0 ± 14.0 ng/mL in data set [1] (Cassette #3, single 15 mg/kg iv cassette dose (3 mg/kg/compound), 1 h); 19.2 ± 6.0 ng/mL in [1] (Cassette #3, single 15 mg/kg iv cassette dose (3 mg/kg/compound), 3 h); 4.3 ± 0.7 ng/mL in data set [1] (Cassette #3, single 15 mg/kg iv cassette dose (3 mg/kg/compound), 6 h). In addition, the “Mean Conc. in plasma” value was 3.2 ± 1.6 ng/mL in [1] (Cassette #3, single 15 mg/kg iv cassette dose (3 mg/kg/compound), 8 h) and “BLQ^a” in data set [1] (Cassette #3, single 15 mg/kg iv cassette dose (3 mg/kg/compound), 24 h). The “Mean Red Blood Cell to Plasma Ratio” value is 3.4 in [4] and 8.4 in data set [2].
With “trans-3-{4-[2-(4-Amino-cyclohexylamino)-9-cyclopentyl-9H-purin-6-ylamino]-piperidine-1-sulfonyl}-benzoic acid methyl ester dihydrochloride [Compound 135]”, the IC50 in the data set on PC-3 (MTT assay, mean (SD, n) where given, read-out: PC-3 Prostate (IC50 μM)) was 4.05 µM; on cdk1/cyclin B (read-out: CDK1 IC50, inhibition of cyclin B/CDK 1 enzyme activity), 80 nM; in the data set on MDA-MB-435, 3.38 µM; against cdk4/cyclin D1, 62 nM; at cdk2/cyclin E, 4 nM.
